Source: patent US11312719B2, “9-substituted amino triazolo quinazoline derivatives as adenosine receptor antagonists, pharmaceutical compositions and their use” (Merck Sharp & Dohme Corp., priority 2018, dated 2022)

Columns and labels:
human A2B receptors = human A2B receptors (Homo sapiens (Human), UniProt P29275); assay: A2B antagonism in cAMP cell-based assay (LANCE cAMP, HEK293); details: HEK293 cells expressing human A2B receptor
Protocol: (§1) Measurement of A2A and A2B Antagonism in cAMP Cell-Based Assay
(§2) The ability of compounds to antagonize human A2A and A2B adenosine receptors was determined using a kit to measure changes in intracellular cyclic AMP levels (LANCE cAMP 384 Kit, Perkin Elmer, Cat. No. AD0264). HEK293 cells recombinantly expressing either human A2A or A2B receptors, previously frozen in Recovery Medium (Life Technologies, Cat. No. 12648-010) were thawed and diluted into stimulation buffer (HBSS (Hyclone SH 30268.01), 5 mM HEPES (Gibco 15630-106), 200 nM rolipram (Tocris, Cat. No. 0905), and 1.5% (V/v) BSA stabilizer (kit component). The cell suspension was centrifuged at 200×g for 10 min and then resuspended in stimulation buffer, supplemented with a 1:10 000 dilution of Alexa Fluor 647 anti-cAMP antibody, to a density of 6.0×10^5 cells/mL. A Labcyte Echo 550 acoustic dispenser was used to transfer up to 25 nL of test compound dissolved in DMSO into the wells of a dry Optiplate-384 plate (Perkin Elmer, Cat. No. 6008289). All subsequent liquid additions were performed using a multichannel pipettor. Next, 5 μL of the cell suspension was added to the wells of the Optiplate-384 and incubated for 30 min. at 37° C. and 5% CO2 in a humidified environment. After this time 5 μL of either 300 nM or 600 nM adenosine (Sigma Cat. No. A9251) for A2A and A2B respectively was added and incubated for 30 minutes at 37° C. and 5% CO2 in a humidified environment. At this time detection mix was prepared by combining the LANCE Eu-W8044 labeled streptavidin and Biotin-cAMP in detection buffer according to the manufacturers protocol. 10 μL of the detection mix was added to each well of the Optiplate-384 which was covered with a plate seal and incubated under ambient conditions for 2 hours prior to reading the plate using an Envision (Perkin Elmer, Waltham, Mass.) multimode plate reader. Data was normalized by defining minimal effect as stimulation in the presence of 0.25% (v/v) DMSO and maximal effect as stimulation in the presence of 1 μM ZM241385 (Cayman, Cat. No. 1036). Curve fitting of the percent effect data versus the log of compound concentration used a 4-parameter concentration response curve fitting algorithm to calculate IC50 values. Compound concentrations tested were 10,000, 3,333, 1,111, 370.4, 123.4, 41.2, 13.7, 4.6, 1.5 and 0.5 nM with 0.25% residual DMSO.

human A2A receptors = human A2A receptors (Homo sapiens (Human), UniProt P29274); assay: A2A antagonism in cAMP cell-based assay (LANCE cAMP, HEK293); details: HEK293 cells expressing human A2A receptor
Protocol: as §1, §2

human A2A receptors, sequence (P29274 whole entry): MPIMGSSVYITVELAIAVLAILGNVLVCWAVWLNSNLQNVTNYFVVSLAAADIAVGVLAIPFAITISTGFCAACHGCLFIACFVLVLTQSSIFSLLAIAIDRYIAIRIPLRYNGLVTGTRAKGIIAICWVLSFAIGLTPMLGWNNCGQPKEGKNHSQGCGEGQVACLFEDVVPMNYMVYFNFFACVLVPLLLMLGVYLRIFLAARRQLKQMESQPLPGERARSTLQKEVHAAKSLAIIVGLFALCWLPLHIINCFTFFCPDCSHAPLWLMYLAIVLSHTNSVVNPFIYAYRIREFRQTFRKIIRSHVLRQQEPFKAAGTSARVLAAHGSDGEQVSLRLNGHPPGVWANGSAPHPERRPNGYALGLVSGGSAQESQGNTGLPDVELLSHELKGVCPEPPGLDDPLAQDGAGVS
human A2B receptors, sequence (P29275 whole entry): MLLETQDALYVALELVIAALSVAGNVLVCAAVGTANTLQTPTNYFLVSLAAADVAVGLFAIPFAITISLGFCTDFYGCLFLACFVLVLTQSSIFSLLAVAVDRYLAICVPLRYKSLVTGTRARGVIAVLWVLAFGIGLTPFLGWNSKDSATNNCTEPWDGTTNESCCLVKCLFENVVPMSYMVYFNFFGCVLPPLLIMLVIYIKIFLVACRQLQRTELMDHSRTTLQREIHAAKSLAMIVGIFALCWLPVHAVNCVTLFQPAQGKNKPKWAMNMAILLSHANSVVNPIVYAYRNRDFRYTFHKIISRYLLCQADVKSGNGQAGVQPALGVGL

| SMILES | IC50 (human A2B receptors) [nM] | IC50 (human A2A receptors) [nM] | A2B cAMP % Inh. @10000 nM (human A2B receptors; at 10000 nM) [% Inh.] |
| --- | --- | --- | --- |
| COc1cc2nc(N)n3nc(C4CC(C)CN(c5cn(C(C)(C)CO)nc5C)C4)nc3c2cc1F (racemic) [Example 155, racemic, trans-2-(4-(3-(5-amino-9-fluoro-8-methoxy-[1,2,4]triazolo [1,5-c]quinazolin-2-yl)-5-methylpiperidin-1-yl)-3-methyl-1H-pyrazol-1-yl)-2-methylpropan-1-ol] | 1440 | 23.9 | – |
| COc1cc2nc(N)n3nc(C4CC(C)CN(c5cnn(C(C)(C)CO)c5)C4)nc3c2cc1F (racemic) [Example 156, racemic, trans-2-(4-(3-(5-amino-9-fluoro-8-methoxy-[1,2,4]triazolo[1,5-c]quinazolin-2-yl)-5-methylpiperidin-1-yl)-1H-pyrazol-1-yl)-2-methylpropan-1-ol] | 358 | 9.5 | – |
| COc1cc2nc(N)n3nc([C@@H]4C[C@H](C)CN(c5cnn(CC(C)(C)O)c5)C4)nc3c2cc1F (single isomer, unassigned) [Example 157, 1-(4-((3R,5S or 3S,5R)-3-(5-amino-9-fluoro-8-methoxy-[1,2,4]triazolo[1,5-c]quinazolin-2-yl)-5-methylpiperidin-1-yl)-1H-pyrazol-1-yl)-2-methylpropan-2-ol] | 4480 | 33.4 | – |
| COc1cc(F)cc2c1nc(N)n1nc(C3CC(C)CN(c4cnn(CC(C)(C)O)c4)C3)nc21 (single isomer, unassigned) [Example 160, 1-(4-((3S,5R or 3R,5S)-3-(5-amino-9-fluoro-7-methoxy-[1,2,4]triazolo[1,5-c]quinazolin-2-yl)-5-methylpiperidin-1-yl)-1H-pyrazol-1-yl)-2-methylpropan-2-ol] | 648 | 8.7 | – |
| CC1CC(c2nc3c4cc(F)cc(F)c4nc(N)n3n2)CN(c2cnn(CC(C)(C)O)c2)C1 (single isomer, unassigned) [Example 163, 1-(4-((3R,5S or 3S,5R)-3-(5-amino-7,9-difluoro-[1,2,4]triazolo[1,5-c]quinazolin-2-yl)-5-methylpiperidin-1-yl)-1H-pyrazol-1-yl)-2-methylpropan-2-ol] | 5310 | 36 | – |
| CC1CC(c2nc3c4cc(F)cc(F)c4nc(N)n3n2)CN(c2cnn(CC(C)(C)O)c2)C1 (single isomer, unassigned) [Example 164, 1-(4-((3S,5R or 3R,5S)-3-(5-amino-7,9-difluoro-[1,2,4]triazolo[1,5-c]quinazolin-2-yl)-5-methylpiperidin-1-yl)-1H-pyrazol-1-yl)-2-methylpropan-2-ol] | 47.7 | 1.9 | – |
| COc1cc(F)cc2c1nc(N)n1nc(C3CC(C)CN(c4cnn(C(C)(C)CO)c4)C3)nc21 (single isomer, unassigned) [Example 166, 2-(4-((3S,5R or 3R,5S)-3-(5-amino-9-fluoro-7-methoxy-[1,2,4]triazolo[1,5-c]quinazolin-2-yl)-5-methylpiperidin-1-yl)-1H-pyrazol-1-yl)-2-methylpropan-1-ol] | 2770 | 20 | – |
| Cc1nn(CC(C)(C)O)cc1N1CC(C)CC(c2nc3c4cc(F)cc(F)c4nc(N)n3n2)C1 (single isomer, unassigned) [Example 168, 1-(4-((3S,5R or 3R,5S)-3-(5-amino-7,9-difluoro-[1,2,4]triazolo[1,5-c]quinazolin-2-yl)-5-methylpiperidin-1-yl)-3-methyl-1H-pyrazol-1-yl)-2-methylpropan-2-ol] | 4720 | 23.9 | – |
| COc1cc2nc(N)n3nc(C4CC(C)CN(c5cn(C(C)(C)CO)nc5C)C4)nc3c2cc1F (single isomer, unassigned) [Example 169, 2-(4-((3S,5S or 3S,5R)-3-(5-amino-9-fluoro-8-methoxy-[1,2,4]triazolo[1,5-c]quinazolin-2-yl)-5-methylpiperidin-1-yl)-3-methyl-1H-pyrazol-1-yl)-2-methylpropan-1-ol] | 3380 | 96.5 | – |
| COc1cc2nc(N)n3nc(C4CC(C)CN(c5cnn(C(C)(C)CO)c5)C4)nc3c2cc1F (single isomer, unassigned) [Example 171, 2-(4-((3R,5S or 3S,5R)-3-(5-amino-9-fluoro-8-methoxy-[1,2,4]triazolo[1,5-c]quinazolin-2-yl)-5-methylpiperidin-1-yl)-1H-pyrazol-1-yl)-2-methylpropan-1-ol] | 11.3 | 1.2 | – |
| COc1cc2nc(N)n3nc(C4CC(C)CN(c5cnn(C(C)(C)CO)c5)C4)nc3c2cc1F (single isomer, unassigned) [Example 172, 2-(4-((3S,5R or 3R,5S)-3-(5-amino-9-fluoro-8-methoxy-[1,2,4]triazolo[1,5-c]quinazolin-2-yl)-5-methylpiperidin-1-yl)-1H-pyrazol-1-yl)-2-methylpropan-1-ol] | – | 60.5 | 14 |
| COc1cc(F)cc2c1nc(N)n1nc(C3CC(C)CN(c4cn(C(C)C(C)O)nc4C)C3)nc21 (single isomer, unassigned) [Example 226, (2R,3R or 2S,3S)-3-(4-((3S,5R or 3R,5S)-3-(5-amino-9-fluoro-7-methoxy-[1,2,4]triazolo[1,5-c]quinazolin-2-yl)-5-methylpiperidin-1-yl)-3-methyl-1H-pyrazol-1-yl)butan-2-ol] | – | 17.6 | – |
| COc1cc(F)cc2c1nc(N)n1nc(C3CC(C)CN(c4cn(C(C)C(C)O)nc4C)C3)nc21 (single isomer, unassigned) [Example 227, (2S,3S or 2R,3R)-3-(4-((3S,5R or 3R,5S)-3-(5-amino-9-fluoro-7-methoxy-[1,2,4]triazolo[1,5-c]quinazolin-2-yl)-5-methylpiperidin-1-yl)-3-methyl-1H-pyrazol-1-yl)butan-2-ol] | – | 40.2 | – |

Stronger by IC50 (human A2A receptors), values ahead:

| IC50 (human A2B receptors) [nM] | IC50 (human A2A receptors) [nM] | A2B cAMP % Inh. @10000 nM (human A2B receptors; at 10000 nM) [% Inh.] | SMILES |
| --- | --- | --- | --- |
| 32.9 | 1.1 | – | COc1cc2nc(N)n3nc([C@H]4C[C@@H](C)CN(c5cnn(CC(C)(C)O)c5)C4)nc3c2cc1F (single isomer, unassigned) [Example 158, 1-(4-((3S,5R or 3R,5S)-3-(5-amino-9-fluoro-8-methoxy-[1,2,4]triazolo[1,5-c]quinazolin-2-yl)-5-methylpiperidin-1-yl)-1H-pyrazol-1-yl)-2-methylpropan-2-ol] |
| 29.3 | 1 | – | COc1cc(F)cc2c1nc(N)n1nc(C3CC(C)CN(c4cnn(CC(C)(C)O)c4)C3)nc21 (single isomer, unassigned) [Example 159, 1-(4-((3R,5S or 3S,5R)-3-(5-amino-9-fluoro-7-methoxy-[1,2,4]triazolo[1,5-c]quinazolin-2-yl)-5-methylpiperidin-1-yl)-1H-pyrazol-1-yl)-2-methylpropan-2-ol] |
| 6.4 | 0.8 | – | COc1cc(F)cc2c1nc(N)n1nc(C3CC(C)CN(c4cnn(C(C)(C)CO)c4)C3)nc21 (single isomer, unassigned) [Example 165, 2-(4-((3R,5S or 3S,5R)-3-(5-amino-9-fluoro-7-methoxy-[1,2,4]triazolo[1,5-c]quinazolin-2-yl)-5-methylpiperidin-1-yl)-1H-pyrazol-1-yl)-2-methylpropan-1-ol] |
| 46 | 0.6 | – | Cc1nn(CC(C)(C)O)cc1N1CC(C)CC(c2nc3c4cc(F)cc(F)c4nc(N)n3n2)C1 (single isomer, unassigned) [Example 167, 1-(4-((3R,5S or 3S,5R)-3-(5-amino-7,9-difluoro-[1,2,4]triazolo[1,5-c]quinazolin-2-yl)-5-methylpiperidin-1-yl)-3-methyl-1H-pyrazol-1-yl)-2-methylpropan-2-ol] |
| 14.1 | 0.8 | – | COc1cc2nc(N)n3nc(C4CC(C)CN(c5cn(C(C)(C)CO)nc5C)C4)nc3c2cc1F (single isomer, unassigned) [Example 170, 2-(4-((3S,5R or 3R,5S)-3-(5-amino-9-fluoro-8-methoxy-[1,2,4]triazolo[1,5-c]quinazolin-2-yl)-5-methylpiperidin-1-yl)-3-methyl-1H-pyrazol-1-yl)-2-methylpropan-1-ol] |
| – | 0.4 | – | COc1cc(F)cc2c1nc(N)n1nc(C3CC(C)CN(c4cn(C(C)C(C)O)nc4C)C3)nc21 (single isomer, unassigned) [Example 225, (2R,3R or 2S,3S)-3-(4-((3R,5S or 3S,5R)-3-(5-amino-9-fluoro-7-methoxy-[1,2,4]triazolo[1,5-c]quinazolin-2-yl)-5-methylpiperidin-1-yl)-3-methyl-1H-pyrazol-1-yl)butan-2-ol] |
